This experiment in a line: viability loss in fusion assay cells – cell-based, MAGI and MAGI-HeLa co-culture, cytotoxicity control for HIV-1 fusion inhibitor project, dose response (AID 2286).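 As to all read-outs here: cells exposed to compound for at least 64 h before ATP readout; 100% = median of DMSO vehicle wells with no ATP signal meaning 0%.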 The settings on record: MAGI-CCR5 cells viability, CellTiter-Glo ATP luminescence; for minimum viability: measured here: MAGI minimum viability across doses. A general note: ATP-based viability assays read luminescence as a measure of living cells.

The mark [1] stands for this setting: MAGI-HeLa co-culture viability, at 50 µM, stronger effect = lower value.
Where [2] appears, read: at 1.56 µM, stronger effect = lower value.
Where [3] appears, read: at 12.5 µM, stronger effect = lower value.
Where [4] appears, read: at 3.13 µM, stronger effect = lower value.
Where [5] appears, read: at 6.25 µM, stronger effect = lower value.

Activity calls are given as the source filed them.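 The calls were made as follows: active = minimum cell viability of 80% or lower across the dose range, counted as toxic; inactive = minimum cell viability above 80%.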

For orientation: viability means a read-out of living cells in per cent, often relative to untreated cells.

For `CC1=NN(c2ccc(C(=O)O)cc2)C(=O)/C1=C\c1ccc(OC(=O)c2cccs2)cc1`, the viability runs as follows: under setting [1], 120%; (at 50 µM (top of the series)) 94.8% (inactive). Besides, under setting [2], the minimum viability turned out to be 93.5%.
`O=C(O)c1ccccc1N=Nc1c(O)[nH]c2ccc([N+](=O)[O-])cc12`: the viability by setting is: under setting [1], 87.3%; (at 50 µM (top of the series)) 90.2% (inactive). Also, the minimum viability (at 50 µM, stronger effect = lower value) came out at 90.2%.
With `O=C(NCc1ccccc1)c1ccc2c(=O)[nH]c3c(C(=O)NCC4CCCO4)sc(=S)n3c2c1` (stereo not drawn), the viability reads like this: under setting [1], 106%; (at 50 µM (top of the series)) 86.3% (inactive). The minimum viability (at 50 µM, stronger effect = lower value) was determined as 86.3%.
Take `O=C(O)CN1C(=O)/C(=C\c2cccc(OCc3ccc(Cl)cc3)c2)SC1=S`: the viability was 98.9% under setting [1] and 83.6% (inactive) (at 50 µM (top of the series)). Moreover, the minimum viability (at 50 µM, stronger effect = lower value) was 83.6%.
Regarding `O=C(CCCN1C(=O)/C(=C/c2cccs2)SC1=S)Nc1ccc(O)c(C(=O)O)c1`, the viability under setting [1] stood at 106%. For the same molecule, where the note is “at 50 µM, stronger effect = lower value”, the minimum viability was 62.3%.
For the molecule `O=C(O)c1ccccc1-c1ccccc1C(=O)Nc1ccc(-c2nc3cc(Cl)ccc3o2)cc1`, under setting [1], the viability was 80.5%. Moreover, the minimum viability (at 50 µM, stronger effect = lower value) worked out at 56.8%.
Turning to `CCc1nnc(NS(=O)(=O)c2ccc(N/C=C(\C=O)c3nc4cc(Cl)ccc4o3)cc2)s1`, the viability by setting is: under setting [1], 99.2%; (at 50 µM (top of the series)) 90.2% (inactive). Under setting [3], the minimum viability was determined as 84.6%.
With `COc1cccc(-c2nc(SCC(=O)Nc3nc(-c4ccccc4)c(C)s3)[nH]c(=O)c2C#N)c1`, the viability reads like this: under setting [1], 116%; (at 50 µM (top of the series)) 87.6% (inactive). In addition, the minimum viability (at 50 µM, stronger effect = lower value) is 87.6%.
As for `O=C(O)c1cccc(N/N=C/c2cc(Br)cc(Br)c2O)c1`, the viability reads like this: under setting [1], 132%; (at 50 µM (top of the series)) 127% (inactive). Further, under setting [4], the minimum viability is 90.9%.
For `CCOc1cc(/C=N/NC(=O)c2ccc(-c3csc(Nc4ccc(C)cc4)n3)cc2)ccc1OCC(=O)O`, the viability was 92.6% under setting [1] and 90.2% (inactive) (at 50 µM (top of the series)). Further, the minimum viability under setting [3] was found to be 83.3%.
For `O=C(O)CSc1cc(C(=O)c2cc(F)ccc2O)cn2c(=O)c3c(-c4ccccc4)csc3nc12`, the viability under setting [1] was 88%. Further, the minimum viability (at 50 µM, stronger effect = lower value) is 56.4%.
With `CCOc1cc(/C=C2\SC(=O)N(CC(=O)Nc3ccccc3F)C2=O)cc([N+](=O)[O-])c1O`, the viability under setting [1] was found to be 114%. Further, the minimum viability (at 50 µM, stronger effect = lower value) was 77.4%.
For `O=C(O)c1[nH]c2ccccc2c1C(c1cccc(O)c1)c1c(C(=O)O)[nH]c2ccccc12`, the viability is 95.1% under setting [1] and 91.2% (inactive) (at 50 µM (top of the series)). Under setting [5], the minimum viability was 86.4%.
For `COc1ccc(O)c(C(=O)c2cc(SCC(=O)O)c3nc4sc5c(c4c(=O)n3c2)CCCC5)c1`, the viability is 122% under setting [1] and 96.7% (inactive) (at 50 µM (top of the series)). Also, under setting [3], the minimum viability is 90.5%.
In the case of `Cc1c(CC(=O)O)c(=O)oc2c(C)c3occ(-c4ccc(Br)cc4)c3cc12`, the viability under setting [1] is 123%. In addition, the minimum viability (at 50 µM, stronger effect = lower value) stood at 75.8%.
For the molecule `O=C(COc1ccc2ccccc2c1)Nc1cccc(C(=O)Nc2ccccc2C(=O)O)c1`, the viability is 101% under setting [1] and 83.3% (inactive) (at 50 µM (top of the series)). Where the note is “at 50 µM, stronger effect = lower value”, the minimum viability stood at 83.3%.
As for `CC(C)c1ccc(OCC(=O)Nc2cccc(C(=O)Nc3ccccc3C(=O)O)c2)cc1`, the viability under setting [1] turned out to be 96.4% and the viability (at 50 µM (top of the series)) is 84% (inactive). The minimum viability (at 50 µM, stronger effect = lower value) was 84%.
As to `Cc1ccccc1N/N=C/c1sc(=O)n(Cc2cccc(C(=O)O)c2)c1Cl`, under setting [1], the viability worked out at 109%. In addition, the minimum viability (at 50 µM, stronger effect = lower value) came to 72.9%.
Take `COc1ccc(OC)c(N2C(=O)/C(=C/c3ccco3)C(=O)NC2=S)c1`: the viability by setting is: under setting [1], 90.2%; (at 50 µM (top of the series)) 94.8% (inactive). Besides, the minimum viability under setting [5] was found to be 83.8%.
In the case of `CCOc1ccc(C2C(C(=O)Nc3ccccc3)=C(C)N=c3s/c(=C/c4cccc(OCC(=O)O)c4)c(=O)n32)cc1` (stereo not drawn), the viability was 94.8% under setting [1] and 96.2% (inactive) (at 50 µM (top of the series)). Moreover, under setting [2], the minimum viability turned out to be 87.8%.
Take `CCOc1cc(/C=C2/C(=N)N3C(=NC2=O)SN=C3S(=O)(=O)CC)ccc1OC(=O)c1ccco1`: the viability by setting is: under setting [1], 108%; (at 50 µM (top of the series)) 112% (inactive). In addition, the minimum viability (at 0.1 µM, stronger effect = lower value) stood at 106%.
Regarding `O=C(O)CSc1nc(-c2ccc(Cl)cc2)nc2c1oc1ccccc12`, the viability is 108% under setting [1] and 86.3% (inactive) (at 25 µM (top of the series)). The minimum viability under setting [4] was 86.2%.
`O=C(O)c1[nH]c2ccccc2c1C(c1ccccc1)c1c(C(=O)O)[nH]c2ccccc12`: the viability was 93.2% under setting [1] and 86% (inactive) (at 50 µM (top of the series)). In addition, the minimum viability under setting [3] was 81.8%.

For the origin of these results see PubChem BioAssay AID2286 (Southern Research Specialized Biocontainment Screening …, 2010).
